Measurements from ChEMBL document CHEMBL1136837, “Unified QSAR approach to antimicrobials. 4. Multi-target QSAR modeling and comparative multi-distance study of the giant components of antiviral drug-drug complex networks” (Bioorg Med Chem, 2009).
Starred links: 1 amine or outer side, 2 acyl side, 3 side chain; linkers in the order of their positions; H or OH if unused. Non-standard residues stand in square brackets, D forms with d. Residues, ends and D or L forms follow the SMILES beside them. *: point of attachment. Hyp(2-Ph-quinolin-4-yl) = O=C(O)[C@@H]1C[C@@H](Oc2cc(-c3ccccc3)nc3ccccc23)CN1; Hyp(quinolin-4-yl) = O=C(O)[C@@H]1C[C@@H](Oc2ccnc3ccccc23)CN1; Acca(2-Et,1R,2R) = CC[C@@H]1C[C@]1(N)C(=O)O; Dip = N[C@H](C(=O)O)C(c1ccccc1)c1ccccc1; CH2(1-naphthyl) = c1ccc2c(C*)cccc2c1; Hyp = O=C(O)[C@@H]1C[C@@H](O)CN1; X8 = CCCN(N*)C(=O)NN(C)c1ccccc1; azaNva = CCCN(N[*:1])C(=O)[*:2]; Cha = N[C@@H](CC1CCCCC1)C(=O)O; X2 = C[C@H](N*)c1cccc2ccccc12; Chg = N[C@H](C(=O)O)C1CCCCC1; NH(CH2)3Ph = c1ccc(CCCN*)cc1; NHPhenethyl = c1ccc(CCN*)cc1; X3 = C[C@H](N*)c1ccc(Br)cc1; X5 = c1ccc2c(c1)CC[C@@H]2N*; X9 = C[C@H](N*)c1nnn[nH]1; X6 = c1ccc2c(c1)CC(N*)C2; Ac3c = NC1(C(=O)O)CC1; X1 = Clc1ccccc1CCN*; Bn = c1ccc(C*)cc1

tested on: Hepatitis C virus; assay: Antiviral activity against Hepatitis C virus; type: functional, organism-based, Hepacivirus hominis; conditions: not given

Structure (SMILES) | IC50
O=C(O)[C@H](Cc1ccccc1)N(Cc1ccc(-c2nccs2)cc1)C(=O)c1ccc(Cl)cc1Cl (stereo in doubt; form 1) | 620 nM
O=C(O)[C@H](Cc1ccccc1)N(Cc1ccc(-c2nccs2)cc1)C(=O)c1ccc(Cl)cc1Cl (stereo in doubt; form 2) | 5700 nM

same assay, conditions: Hepatitis C virus

Structure (SMILES) | IC50
CCC[C@]1(CC(=O)O)OCCc2c1[nH]c1c(C)cc(F)c(C#N)c21 | 80 nM
COc1ccc2c(O[C@@H]3C[C@H]4C(=O)N[C@]5(C(=O)O)C[C@H]5/C=C\CCCCC[C@H](NC(=O)OC(C)(C)C)C(=O)N4C3)cc(-c3nnc(C)o3)nc2c1 | 12 nM
N#Cc1c(Cl)cccc1COc1cccc(C(=O)/C=C(\O)C(=O)O)c1 | 110 nM
COc1ccc2c(O[C@@H]3C[C@H]4C(=O)N[C@]5(C(=O)O)C[C@H]5/C=C\CCCCC[C@H](NC(=O)OC5CCC5)C(=O)N4C3)cc(-c3csc(NC(C)=O)n3)nc2c1 | 2.6 nM
N#Cc1ccc(CN(C(=O)c2ccc(Cl)cc2Cl)[C@@H](Cc2ccccc2)C(=O)O)cc1 | 8000 nM
COC(=O)c1cccc(CCNC(=O)[C@H](CS)NC(=O)[C@H](CC(C)C)NC(=O)[C@H](CCC(=O)O)NC(=O)OCC(C)C)c1 | 25000 nM
COc1ccc2c(O[C@@H]3C[C@H]4C(=O)N[C@]5(C(=O)O)C[C@H]5/C=C\CCCCC[C@H](NC(=O)OC(C)(C)C)C(=O)N4C3)cc(-n3cnc(C)c3)nc2c1 | 14 nM
CCCC1(CC(=O)OCC)OCCc2c1[nH]c1c(C)ccc(C#N)c21 (centres undefined) | 30000 nM
N#CCCCOc1ccccc1C(=O)CC(=O)C(=O)O | 350 nM
CC(=O)N[C@H](C(=O)N[C@H](C(=O)N1C[C@H](OCc2cccc3ccccc23)C[C@H]1C(=O)N[C@@]1(C(=O)O)C[C@@H]1Cc1ccccc1)C(C)C)C1CCCCC1 | 81000 nM
CC(=O)N[C@@H](CC(=O)O)C(=O)N[C@@H](CCC(=O)O)C(=O)N[C@H](C(=O)N[C@@H](CCC(=O)O)C(=O)N[C@@H](CC1CCCCC1)C(=O)N[C@@H](CS)C(=O)NCCc1ccccc1Cl)C(c1ccccc1)c1ccccc1 (Ac-DE[Dip]E[Cha]C-X1) | 2 nM
O=C(O)[C@H](Cc1ccccc1)N(Cc1cccnc1)C(=O)c1ccc(Cl)cc1Cl | 11000 nM
CC(=O)N[C@H](C(=O)N[C@H](C(=O)N1C[C@H](OCc2cccc3ccccc23)C[C@H]1C(=O)N[C@@]1(C(=O)O)C[C@@H]1CCc1ccccc1)C(C)C)C1CCCCC1 | 90000 nM
CCCN(NC(=O)[C@@H]1C[C@@H](OCc2ccccc2)CN1C(=O)[C@@H](NC(=O)[C@@H](NC(=O)[C@@H](CCC(=O)O)NC(=O)[C@H](CC(=O)O)NC(C)=O)[C@@H](C)CC)C(C)C)C(=O)NN(C)c1ccccc1 (Ac-D[dE]IV[Hyp](Bn)-X8) | 480 nM
COc1ccc2c(O[C@@H]3C[C@H]4C(=O)N[C@]5(C(=O)O)C[C@H]5/C=C\CCCCC[C@H](NC(=O)OC5CCCC5)C(=O)N4C3)cc(-n3cccc3)nc2c1 | 3.6 nM
N#Cc1c(Cl)cc(Cl)cc1COc1cccc(C(=O)/C=C(\O)C(=O)O)c1 | 45 nM
CCCN(NC(=O)[C@@H]1C[C@@H](OCc2ccccc2)CN1C(=O)[C@@H](NC(=O)[C@@H](NC(=O)[C@@H](CCC(=O)O)NC(=O)[C@H](CC(=O)O)NC(C)=O)[C@@H](C)CC)C(C)C)C(=O)N[C@@H](C)c1ccc(Br)cc1 (Ac-D[dE]IV[Hyp](Bn)[azaNva]-X3) | 72 nM
O=C(O)[C@H](Cc1ccccc1)N(Cc1cccc(Cl)c1)C(=O)c1ccc(Cl)cc1Cl | 1400 nM
CC(C)COC(=O)N[C@@H](CCC(=O)O)C(=O)N[C@@H](CC(C)C)C(=O)N[C@@H](CS)C(=O)NCCc1ccc(C(=O)O)cc1 | 2000 nM

Structure (SMILES) | IC50
CC(=O)N[C@H](C(=O)N[C@H](C(=O)N1C[C@H](OCc2cccc3ccccc23)C[C@H]1C(=O)NC1(C(=O)O)CC1)C(C)C)C1CCCCC1 (Ac-[Chg]V[Hyp](CH2(1-naphthyl))[Ac3c]-OH) | 4000 nM
CCNc1nc(-c2cc(O[C@@H]3C[C@H]4C(=O)N[C@]5(C(=O)O)C[C@H]5/C=C\CCCCC[C@H](NC(=O)OC5CCCC5)C(=O)N4C3)c3ccc(OC)cc3n2)cs1 | 2.9 nM
CC(=O)CC(=O)C(=O)O | 50000 nM
CCCN(NC(=O)[C@@H]1C[C@@H](OCc2ccccc2)CN1C(=O)[C@@H](NC(=O)[C@@H](NC(=O)[C@@H](CCC(=O)O)NC(=O)[C@H](CC(=O)O)NC(C)=O)[C@@H](C)CC)C(C)C)C(=O)N[C@@H](C)c1nnn[nH]1 (Ac-D[dE]IV[Hyp](Bn)[azaNva]-X9) | 860 nM
N#Cc1ccccc1CN(C(=O)c1ccc(Cl)cc1Cl)[C@@H](Cc1ccccc1)C(=O)O | 6000 nM
CC(=O)N[C@H](C(=O)N[C@H](C(=O)N1C[C@H](Oc2ccnc3ccccc23)C[C@H]1C(=O)NC1(C(=O)O)CC1)C(C)C)C1CCCCC1 (Ac-[Chg]V[Hyp(quinolin-4-yl)][Ac3c]-OH) | 2200 nM
COC(=O)C(=O)CC(=O)c1ccccc1 | 50000 nM
O=C(O)[C@H](Cc1ccccc1)N(Cc1ccc(-c2cc3ccccc3o2)s1)C(=O)c1ccc(Cl)cc1Cl | 8600 nM
CCC[C@@]1(CC(=O)O)OCCc2c1[nH]c1c(C)ccc(C#N)c21 | 2400 nM
COc1ccc2c(O[C@@H]3C[C@H]4C(=O)N[C@]5(C(=O)O)C[C@H]5/C=C\CCCCC[C@H](NC(=O)N[C@H](C)C(C)(C)C)C(=O)N4C3)cc(-c3csc(NC(C)=O)n3)nc2c1 | 1.4 nM
COc1ccc2c(O[C@@H]3C[C@H]4C(=O)N[C@]5(C(=O)O)C[C@H]5/C=C\CCCCC[C@H](NC(=O)OC(C)(C)C)C(=O)N4C3)cc(-n3ccnc3)nc2c1 | 4.7 nM
CCCN(NC(=O)[C@@H]1C[C@@H](OCc2ccccc2)CN1C(=O)[C@@H](NC(=O)[C@@H](NC(=O)[C@@H](CCC(=O)O)NC(=O)[C@H](CC(=O)O)NC(C)=O)[C@@H](C)CC)C(C)C)C(=O)N[C@H]1CCc2ccccc21 (Ac-D[dE]IV[Hyp](Bn)[azaNva]-X5) | 100 nM
O=C(O)C(=O)CC(=O)c1ccccc1 | 5700 nM
CNc1nc(-c2cc(O[C@@H]3C[C@H]4C(=O)N[C@]5(C(=O)O)C[C@H]5/C=C\CCCCC[C@H](NC(=O)OC(C)(C)C)C(=O)N4C3)c3ccc(OC)cc3n2)cs1 | 6.4 nM
COC(=O)c1ccccc1CCNC(=O)[C@H](CS)NC(=O)[C@H](CC(C)C)NC(=O)[C@H](CCC(=O)O)NC(=O)OCC(C)C | 54000 nM
O=C(CC(O)C(=O)O)c1ccccc1 (centres undefined) | 50000 nM
CC[C@@H]1C[C@]1(NC(=O)[C@@H]1C[C@@H](Oc2cc(-c3ccccc3)nc3ccccc23)CN1C(=O)[C@@H](NC(=O)[C@@H](NC(C)=O)C1CCCCC1)C(C)C)C(=O)O (Ac-[Chg]V[Hyp(2-Ph-quinolin-4-yl)][Acca(2-Et,1R,2R)]-OH) | 13 nM
C[C@@]1(O)[C@H](O)[C@@H](CO)O[C@H]1n1ccc2c(N)nc(F)nc21 | 100000 nM
CC(=O)N[C@@H](CC(=O)O)C(=O)N[C@@H](CCC(=O)O)C(=O)N[C@H](C(=O)N[C@@H](CCC(=O)O)C(=O)N[C@@H](CC1CCCCC1)C(=O)N[C@@H](CS)C(=O)NCCCc1ccccc1)C(c1ccccc1)c1ccccc1 (Ac-DE[Dip]E[Cha]C-{NH(CH2)3Ph}) | 210 nM

Structure (SMILES) | IC50
O=C(O)C(=O)CC(=O)c1ccccc1OCc1ccccc1 | 44000 nM
CCCC1(CC(=O)O)OCCc2c1[nH]c1c(C)ccc(C#N)c21 (centres undefined) | 570 nM
CC(=O)N[C@H](C(=O)N[C@H](C(=O)N1C[C@H](OCc2cccc3ccccc23)C[C@H]1C(=O)N[C@@]1(C(=O)O)C[C@@H]1C)C(C)C)C1CCCCC1 | 180000 nM
CC(=O)N[C@H](C(=O)N[C@H](C(=O)N1C[C@H](Oc2cc(-c3ccccc3)nc3ccccc23)C[C@H]1C(=O)NC1(C(=O)O)CC1)C(C)C)C1CCCCC1 (Ac-[Chg]V[Hyp(2-Ph-quinolin-4-yl)][Ac3c]-OH) | 370 nM
O=C(O)[C@H](Cc1ccccc1)N(Cc1cccc([N+](=O)[O-])c1)C(=O)c1ccc(Cl)cc1Cl | 700 nM
CC(=O)N[C@H](C(=O)N[C@H](C(=O)N1C[C@H](Oc2cccc(-c3cccc([N+](=O)[O-])c3)c2)C[C@H]1C(=O)NC1(C(=O)O)CC1)C(C)C)C1CCCCC1 | 4000 nM
CC(=O)N[C@@H](CC(=O)O)C(=O)N[C@@H](CCC(=O)O)C(=O)N[C@H](C(=O)N[C@@H](CCC(=O)O)C(=O)N[C@@H](CC1CCCCC1)C(=O)N[C@@H](CS)C(=O)NC1Cc2ccccc2C1)C(c1ccccc1)c1ccccc1 (Ac-DE[Dip]E[Cha]C-X6) | 1700 nM
CCC[C@]1(CC(=O)O)OCCc2c1[nH]c1c(C)ccc(C#N)c21 | 330 nM
O=C(O)C(=O)CC(=O)c1cccc(NS(=O)(=O)c2ccccc2)c1 | 16000 nM
CCC[C@@]1(CC(=O)O)OCCc2c1[nH]c1c(Cl)ccc(CC)c21 | 15000 nM
O=C(O)[C@H](Cc1ccccc1)N(Cc1cccc(C(F)(F)F)c1)C(=O)c1ccc(Cl)cc1Cl | 1700 nM
CC(=O)N[C@@H](CC(=O)O)C(=O)N[C@@H](CCC(=O)O)C(=O)N[C@H](C(=O)N[C@@H](CCC(=O)O)C(=O)N[C@@H](CC1CCCCC1)C(=O)N[C@@H](CS)C(=O)NCCc1ccccc1)C(c1ccccc1)c1ccccc1 (Ac-DE[Dip]E[Cha]C-NHPhenethyl) | 7 nM
COc1ccc2c(O[C@@H]3C[C@H]4C(=O)N[C@]5(C(=O)O)C[C@H]5/C=C\CCCCC[C@H](NC(=O)OC5CCCC5)C(=O)N4C3)cc(-c3csc(NC(C)=O)n3)nc2c1 | 2.5 nM
COc1ccc2c(O[C@@H]3C[C@H]4C(=O)N[C@]5(C(=O)O)C[C@H]5/C=C\CCCCC[C@H](NC(=O)OC5CCCC5)C(=O)N4C3)cc(-n3ccc(C)n3)nc2c1 | 2.2 nM
O=C(O)[C@H](Cc1ccccc1)N(Cc1cccc(Br)c1)C(=O)c1ccc(Cl)cc1Cl | 3500 nM
CC[C@@H]1C[C@]1(NC(=O)[C@@H]1C[C@@H](Oc2cccc(-c3ccccc3)c2)CN1C(=O)[C@@H](NC(=O)[C@@H](NC(C)=O)C1CCCCC1)C(C)C)C(=O)O | 120 nM
COc1ccc2c(O[C@@H]3C[C@H]4C(=O)N[C@]5(C(=O)O)C[C@H]5/C=C\CCCCC[C@H](NC(=O)OC5CCCC5)C(=O)N4C3)cc(-n3cccn3)nc2c1 | 2.2 nM
CCc1ccc(Cl)c2[nH]c3c(c12)CCOC3(CC)CC(=O)O (centres undefined) | 30000 nM
CCCN(NC(=O)[C@@H]1C[C@@H](OCc2ccccc2)CN1C(=O)[C@@H](NC(=O)[C@@H](NC(=O)[C@@H](CCC(=O)O)NC(=O)[C@H](CC(=O)O)NC(C)=O)[C@@H](C)CC)C(C)C)C(=O)N[C@@H](C)c1cccc2ccccc12 (Ac-D[dE]IV[Hyp](Bn)[azaNva]-X2) | 490 nM
